What was measured:
[1] = Stability of the compound, solid or in water (NMR and TLC analysis); format: physicochemical
[2] = Toxicity (LD50) when tested in mice; conditions: mouse, in vivo
Source text: Another advantage of the compounds of this invention are their low toxicity.

Row | degradation at 0° after one month ([1]; 0°, one month, NMR and TLC analysis) | hydrolysis in water after one month ([1]; 15 mg/mL in water, room temperature, one month) | stability in water ([1]; 15 mg/mL in water, room temperature, one week, TLC analysis) | acyl-migration products ([1]; aqueous solution, 60°) | α-anomers remaining after 36 hours ([1]; aqueous solution, 60°, 36 hours, α-anomers) | β-anomers remaining after 36 hours ([1]; aqueous solution, 60°, 36 hours, β-anomers) | hydrolysis of aqueous solution at 60° ([1]; aqueous solution, 60°, formation of D-glucose, NMR and TLC analysis) | time after which slow degradation of the solid was noted ([1]; solid compound, 60°, D-glucose and unidentified decomposition products (TLC)) [h] | Compound | stability at 0° ([1]; 0°, substantially long periods of time) | relative hydrolysis of β- and α-anomers ([1]; aqueous solution, 60°) | LD50 [2] [mg/kg]
1 | no noticeable degradation | Partial hydrolysis into D-glucose | stable in water | No acyl-migration products were detected | some α-anomers were still present | completely disappeared | some hydrolysis after about two hours | 3 | CCCCC(C(=O)OC1O[C@H](CO)[C@@H](O)[C@H](O)[C@H]1O)C(=O)OC1O[C@H](CO)[C@@H](O)[C@H](O)[C@H]1O (stereo partly drawn) [Example 2, Di-(1,1'-D-glucopyranosyl)n-butylmalonates] | stable at 0° for substantially long periods of time | hydrolysis of the β-anomers appeared faster than that of the α-anomers | –
2 | – | – | – | – | – | – | – | – | CCC(C(=O)OC1O[C@H](CO)[C@@H](O)[C@H](O)[C@H]1O)C(=O)OC1O[C@H](CO)[C@@H](O)[C@H](O)[C@H]1O (stereo partly drawn) [Example 4, Di-(1,1'-D-glucopyranosyl)ethylmalonates] | – | – | 9700

— US4572907A, “High caloric product for I.V. administration” (Abbott Laboratories, priority 1984, dated 1986)
